# Reference: ChEMBL document CHEMBL1201862, “PubChem BioAssay data set” (2004)
# Calls of active or inactive are those of the source.
# Key:
# [1] = Luminescence Cell-Based Dose Confirmation HTS to Identify Inhibitors of Platelet Dense Granule Release. [Related pubchem assays: 1663 (Primary HTS), 1678 (Summary of Project)]; type: functional
# [2] = molecular target: Luciferin 4-monooxygenase (Photinus pyralis, UniProt P08659); assay: inhibition of purified Photinus pyralis luciferase – biochemical, luminescence, dose response (AID 1891)
# [3] = molecular target: T1, Cytochrome P450 1A2 (Homo sapiens, UniProt P05177);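 also: PubChem cytochrome P450 panel assay, CYP1A2 panel member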
# T1 sequence (P05177 whole entry): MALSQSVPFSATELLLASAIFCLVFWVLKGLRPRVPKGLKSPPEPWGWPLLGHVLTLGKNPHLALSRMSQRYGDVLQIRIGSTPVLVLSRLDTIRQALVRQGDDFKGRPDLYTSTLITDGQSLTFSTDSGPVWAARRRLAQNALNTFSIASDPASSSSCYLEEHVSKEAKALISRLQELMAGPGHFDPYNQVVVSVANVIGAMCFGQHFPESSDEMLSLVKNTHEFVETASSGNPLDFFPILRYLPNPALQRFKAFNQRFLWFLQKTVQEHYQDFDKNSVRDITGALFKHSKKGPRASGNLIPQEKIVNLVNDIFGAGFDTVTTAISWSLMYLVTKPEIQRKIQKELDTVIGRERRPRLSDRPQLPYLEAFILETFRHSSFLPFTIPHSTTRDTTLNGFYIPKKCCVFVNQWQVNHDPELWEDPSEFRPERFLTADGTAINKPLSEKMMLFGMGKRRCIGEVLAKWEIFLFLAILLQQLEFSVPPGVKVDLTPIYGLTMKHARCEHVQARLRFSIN
# [4] = molecular target: Cytochrome P450 2D6 (Homo sapiens, UniProt P10635);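 also: CYP2D6 member of a cytochrome P450 panel assay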
# [5] = molecular target: Cytochrome P450 2C19 (Homo sapiens, UniProt P33261); assay: Cytochrome panel assay with activity outcomes. Panel member name: p450-cyp2c19 Compounds with AC50 equal or less than 10 uM are considered active; type: functional
# [6] = cells; type: functional
# [7] = molecular target: Cytochrome P450 2C9 (Homo sapiens, UniProt P11712)
# [8] = tested on: H4; assay: Luminescence Cell-Based Dose Response HTS to Identify Activators of 5'UTR Stem-Loop Driven Prion Protein mRNA Translation in H4 Neuroglioblastoma Cells. [Related pubchem assays: 1829 (Project Summary), 1814 (Primary HTS)]; type: functional; conditions: Homo sapiens
# [9] = Luminescence Cell-Based Dose Response HTS to Identify Activators of Luciferase Translation or Activity in H4 […] Cells. [Related pubchem assays: 1829 (Project Summary), 1814 (Primary HTS)]; type: functional
# [10] = Luminescence Cell-Based Dose Confirmation HTS to Identify Activators of 5'UTR Stem-Loop Driven Alpha-Synuclein mRNA Translation in H4 Neuroglioblastoma Cells. [Related pubchem assays: 1829 (Project Summary), 1814 (Primary HTS)]; type: functional
# [11] = Luminescence Cell-Based Dose Retest to Confirm Inhibitors of Cancer Stem Cells. [Related pubchem assays (depositor defined):AID2717, AID2721]; type: functional; conditions: Homo sapiens
# [12] = molecular target: T2, Zinc finger protein mex-5 (Caenorhabditis elegans, UniProt Q9XUB2); assay: potency of MEX-5 RNA-binding blockers – biochemical, C. elegans, fluorescence polarization, dose response (AID 1960)
# T2 sequence (Q9XUB2 whole entry): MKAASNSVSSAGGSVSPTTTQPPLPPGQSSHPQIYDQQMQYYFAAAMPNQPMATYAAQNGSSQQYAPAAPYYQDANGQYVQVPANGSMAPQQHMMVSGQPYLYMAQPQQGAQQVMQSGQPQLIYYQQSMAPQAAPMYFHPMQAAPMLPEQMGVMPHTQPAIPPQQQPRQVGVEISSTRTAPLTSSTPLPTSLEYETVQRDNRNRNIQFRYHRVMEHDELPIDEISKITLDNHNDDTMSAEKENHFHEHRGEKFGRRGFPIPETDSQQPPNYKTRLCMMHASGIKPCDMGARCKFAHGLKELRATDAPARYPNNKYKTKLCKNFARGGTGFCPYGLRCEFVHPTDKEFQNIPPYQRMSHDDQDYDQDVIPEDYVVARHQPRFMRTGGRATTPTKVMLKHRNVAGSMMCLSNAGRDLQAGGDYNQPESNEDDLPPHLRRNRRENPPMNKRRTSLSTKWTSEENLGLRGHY
# [13] = molecular target: T3, RNA-binding protein pos-1 (Caenorhabditis elegans, UniProt G5EF15); assay: disruptors of C. elegans POS-1 RNA interaction – biochemical, fluorescence polarization, dose response (AID 1964);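 also: purified POS-1 fused to maltose binding protein made in E. coli; potency of compounds blocking POS-1 binding to fluorescent RNA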
# T3 sequence (G5EF15 whole entry): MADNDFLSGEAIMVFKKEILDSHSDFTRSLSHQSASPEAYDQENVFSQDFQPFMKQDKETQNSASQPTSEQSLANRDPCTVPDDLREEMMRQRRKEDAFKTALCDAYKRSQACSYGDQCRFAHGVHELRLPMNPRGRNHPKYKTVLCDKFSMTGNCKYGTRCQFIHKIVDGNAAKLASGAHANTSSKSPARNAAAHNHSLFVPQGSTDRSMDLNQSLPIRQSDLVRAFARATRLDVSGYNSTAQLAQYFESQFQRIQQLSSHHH
# [14] = Luminescence Cell-Based Dose Response HTS to Identify Inhibitors of 5'UTR Stem-Loop Driven Prion Protein mRNA Translation in H4 Neuroglioblastoma Cells. [Related pubchem assays: 1827 (Project Summary), 1813 (Primary HTS)]; type: functional
# [15] = luciferase reporter signal suppression in cells – H4 neuroglioma cells, luminescence, dose response (AID 1990); type: functional, cell-based
# [16] = alpha-synuclein stem-loop luciferase translation blockers – H4 neuroglioma cells, luminescence, confirmation (AID 1988); type: functional, cell-based
# [17] = molecular target: Cytochrome P450 3A4 (Homo sapiens, UniProt P08684);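 also: CYP3A4 tested as one member of a cytochrome P450 panel screen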
# [18] = non-specific 3'UTR reporter inhibition in Clone20-Shn3RL – cell-based, Renilla luciferase, cherry-picked, counter-screen for Shn3 inhibitor project, dose response (AID 624133); type: functional
# [19] = reduction of Shn3 3'UTR-driven luciferase in osteoblasts – cell-based, Clone20 osteoblasts, firefly luciferase, cherry-picked, dose response (AID 624132); type: functional;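 also: firefly luciferase luminescence from reporter carrying the Shn3 3'UTR in osteoblasts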
# [20] = molecular target: Paired box protein Pax-8 (Homo sapiens, UniProt Q06710); assay: PAX8 transcriptional activity inhibition in RMG-I – RMG-I cells, luciferase, cherry-pick, dose response (AID 687027); type: functional, cell-based;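 also: luciferase reporter driven by Pax8 target thyroperoxidase promoter measured by SteadyGlo luminescence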
# Paired box protein Pax-8, sequence (Q06710 whole entry): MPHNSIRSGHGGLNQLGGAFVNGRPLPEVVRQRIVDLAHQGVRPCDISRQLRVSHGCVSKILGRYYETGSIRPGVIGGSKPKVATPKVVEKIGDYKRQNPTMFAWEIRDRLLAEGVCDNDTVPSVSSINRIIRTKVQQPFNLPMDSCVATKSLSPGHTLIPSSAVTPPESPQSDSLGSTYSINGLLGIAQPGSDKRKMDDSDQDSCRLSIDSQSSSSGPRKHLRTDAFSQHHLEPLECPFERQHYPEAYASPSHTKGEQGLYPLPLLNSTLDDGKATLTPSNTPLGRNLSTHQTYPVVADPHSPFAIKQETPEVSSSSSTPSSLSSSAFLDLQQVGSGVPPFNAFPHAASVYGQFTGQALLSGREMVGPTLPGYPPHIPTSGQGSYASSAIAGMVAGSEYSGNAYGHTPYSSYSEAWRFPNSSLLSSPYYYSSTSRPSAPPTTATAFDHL
# Luciferin 4-monooxygenase, sequence (P08659 whole entry): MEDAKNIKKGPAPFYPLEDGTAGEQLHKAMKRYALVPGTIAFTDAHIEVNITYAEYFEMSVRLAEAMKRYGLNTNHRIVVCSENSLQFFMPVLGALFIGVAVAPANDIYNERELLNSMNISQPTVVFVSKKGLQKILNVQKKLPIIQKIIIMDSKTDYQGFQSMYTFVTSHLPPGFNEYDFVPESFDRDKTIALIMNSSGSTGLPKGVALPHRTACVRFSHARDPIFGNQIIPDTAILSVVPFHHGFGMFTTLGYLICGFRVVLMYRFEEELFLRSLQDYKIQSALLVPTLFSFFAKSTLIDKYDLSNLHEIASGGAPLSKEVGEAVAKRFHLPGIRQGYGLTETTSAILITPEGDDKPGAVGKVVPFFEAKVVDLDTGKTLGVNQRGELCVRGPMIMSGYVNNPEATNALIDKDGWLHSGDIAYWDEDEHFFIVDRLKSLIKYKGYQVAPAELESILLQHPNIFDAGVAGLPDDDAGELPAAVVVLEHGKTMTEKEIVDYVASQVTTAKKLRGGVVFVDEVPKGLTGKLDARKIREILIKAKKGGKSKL
# Cytochrome P450 2C9, sequence (P11712 whole entry): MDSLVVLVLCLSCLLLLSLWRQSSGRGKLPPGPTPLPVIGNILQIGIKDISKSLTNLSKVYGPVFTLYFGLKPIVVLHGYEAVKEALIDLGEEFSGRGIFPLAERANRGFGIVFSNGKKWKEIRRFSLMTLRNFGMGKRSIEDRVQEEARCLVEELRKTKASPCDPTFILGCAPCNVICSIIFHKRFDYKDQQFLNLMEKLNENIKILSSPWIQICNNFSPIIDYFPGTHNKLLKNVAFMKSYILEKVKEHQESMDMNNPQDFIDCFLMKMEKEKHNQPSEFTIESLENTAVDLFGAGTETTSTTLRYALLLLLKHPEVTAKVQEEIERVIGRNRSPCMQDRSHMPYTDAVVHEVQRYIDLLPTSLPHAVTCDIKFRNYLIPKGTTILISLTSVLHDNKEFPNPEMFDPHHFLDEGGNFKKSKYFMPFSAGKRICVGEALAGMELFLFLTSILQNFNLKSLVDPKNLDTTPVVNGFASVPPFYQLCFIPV
# Cytochrome P450 2C19, sequence (P33261 whole entry): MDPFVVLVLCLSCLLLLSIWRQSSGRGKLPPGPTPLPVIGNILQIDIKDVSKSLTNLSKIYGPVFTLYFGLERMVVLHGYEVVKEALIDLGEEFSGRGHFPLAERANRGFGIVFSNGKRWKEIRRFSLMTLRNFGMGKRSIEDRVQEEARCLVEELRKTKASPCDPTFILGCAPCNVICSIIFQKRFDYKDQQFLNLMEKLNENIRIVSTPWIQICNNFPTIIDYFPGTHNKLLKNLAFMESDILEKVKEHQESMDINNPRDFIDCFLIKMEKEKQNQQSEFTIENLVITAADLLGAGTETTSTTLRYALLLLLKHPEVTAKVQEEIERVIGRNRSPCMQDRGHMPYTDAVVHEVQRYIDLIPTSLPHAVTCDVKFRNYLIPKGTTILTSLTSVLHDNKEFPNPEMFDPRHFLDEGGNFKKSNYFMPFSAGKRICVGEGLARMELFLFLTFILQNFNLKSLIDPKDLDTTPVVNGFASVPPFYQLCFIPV
# Cytochrome P450 2D6, sequence (P10635 whole entry): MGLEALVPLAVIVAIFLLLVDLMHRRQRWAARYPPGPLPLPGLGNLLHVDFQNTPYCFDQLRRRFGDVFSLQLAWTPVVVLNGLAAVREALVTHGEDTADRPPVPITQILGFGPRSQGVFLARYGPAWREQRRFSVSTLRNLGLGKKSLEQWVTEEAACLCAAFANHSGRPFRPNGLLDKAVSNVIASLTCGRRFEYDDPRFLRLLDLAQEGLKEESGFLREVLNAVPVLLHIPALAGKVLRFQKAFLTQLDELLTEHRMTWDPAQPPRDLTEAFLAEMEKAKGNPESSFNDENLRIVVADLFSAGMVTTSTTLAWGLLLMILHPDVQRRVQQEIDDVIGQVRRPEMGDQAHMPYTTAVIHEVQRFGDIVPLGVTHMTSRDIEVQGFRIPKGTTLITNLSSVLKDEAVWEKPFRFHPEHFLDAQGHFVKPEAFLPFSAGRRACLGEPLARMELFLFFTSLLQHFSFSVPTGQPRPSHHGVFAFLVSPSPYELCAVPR
# Cytochrome P450 3A4, sequence (P08684 whole entry): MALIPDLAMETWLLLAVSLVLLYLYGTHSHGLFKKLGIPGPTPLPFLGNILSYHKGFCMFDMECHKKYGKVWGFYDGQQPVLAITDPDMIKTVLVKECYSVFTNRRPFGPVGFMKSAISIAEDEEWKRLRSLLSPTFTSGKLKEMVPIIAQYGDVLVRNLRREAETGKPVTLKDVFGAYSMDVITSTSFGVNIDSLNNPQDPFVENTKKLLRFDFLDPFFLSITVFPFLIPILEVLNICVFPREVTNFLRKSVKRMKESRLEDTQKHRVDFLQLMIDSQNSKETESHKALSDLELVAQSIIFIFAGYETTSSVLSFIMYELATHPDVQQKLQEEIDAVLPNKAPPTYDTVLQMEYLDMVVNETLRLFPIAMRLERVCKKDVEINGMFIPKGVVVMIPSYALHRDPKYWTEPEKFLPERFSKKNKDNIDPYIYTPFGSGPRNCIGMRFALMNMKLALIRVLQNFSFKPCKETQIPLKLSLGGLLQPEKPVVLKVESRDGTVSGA
structure (smiles),measurement,setting,value
COc1ccc(C(=O)Nc2ccccc2C(=O)Nc2cccnc2)cc1,EC50,[1],6.59 µM (active)
same,EC50,[2],1.61 µM (active)
COc1ccc(S(=O)(=O)N2CCN(Cc3ccc4c(c3)OCO4)CC2)c2ccccc12,EC50,[1],> 112 µM (not active)
same,EC50,[2],> 112 µM (not active)
CCC(NC(=O)C1(C)CC1(Br)Br)c1ccc(C)cc1 (stereo unspecified),AC50,[3],20 µM (inconclusive)
same,AC50,[4],7.94 µM (inconclusive)
COC(=O)[C@@]1(Cc2ccc(F)cc2)[C@H]2c3cc(C(=O)N4CCCC4)n(Cc4cccc5ccccc45)c3C[C@H]2CN1C(=O)c1ccccc1,AC50,[5]; read-out: AC50,7.94 µM (inconclusive)
same,AC50,[3],15.8 µM (inconclusive)
Cc1ccnc(NC(=O)CCc2c[nH]c3ccccc23)c1,IC50,[6],21.6 µM (active)
CC(=O)N1CCC2(CCN(Cc3cc(C(F)(F)F)cc(C(F)(F)F)c3)CC2)CC1,AC50,[3],15.8 µM (inconclusive)
O=C(N[C@@H](c1ccccc1)[C@@H]1C[C@H]1C(=O)NCc1ccccn1)OCc1ccccc1,AC50,[3],10 µM (inconclusive)
same,AC50,[7],20 µM (inconclusive)
COc1ccc(C(=O)/C=C2/C(=O)Nc3ccccc32)cc1,EC50,[8],17.1 µM (active)
same,EC50,[9],> 120 µM (not active)
same,EC50,[10],18.1 µM (active)
same,AC50,[11],4.39 µM (active)
CCOC(=O)c1cc(-c2ccccc2)sc1NC(=S)Nc1cc(C)ccn1,EC50,[12],0.77 µM (inconclusive)
same,EC50,[13],11.1 µM (inconclusive)
same,AC50,[5]; read-out: AC50,6.31 µM (inconclusive)
same,AC50,[3],3.55 µM (inconclusive)
same,AC50,[7],5.62 µM (inconclusive)
CCOc1ccc(-c2nc3ccccc3c(=O)o2)cc1,IC50,[6],7.01 µM (active)
O=C(Nc1ccccc1)OC[C@H](CN1CCCCC1)OC(=O)Nc1ccccc1,AC50,[5]; read-out: AC50,5.01 µM (inconclusive)
same,AC50,[3],12.6 µM (inconclusive)
O=c1c2ccccc2c2ccccc2c(=O)n1-c1cc2c3ccccc3ccc2c2ccccc12,AC50,[3],6.31 µM (inconclusive)
O=C(CSCc1ccccc1)Nc1cccc(C(=O)Nc2ccccc2C(=O)O)c1,AC50,[3],15.8 µM (inconclusive)
C=CCNc1nc(N)c([N+](=O)[O-])c(N2CCCCCC2)n1,EC50,[14],> 120 µM (not active)
same,EC50,[15],> 120 µM (not active)
same,EC50,[16],26.7 µM (active)
COC(=O)c1ccc(/C=C/c2c(-c3ccc(OC)cc3)oc3ccccc23)cc1,AC50,[11],2.47 µM (active)
N=C(NOC(=O)c1ccccc1Cl)c1cccnc1,EC50,[1],> 112 µM (not active)
same,EC50,[2],23.6 µM (active)
CC(=O)Nc1ccc(S(=O)(=O)N2CCC(C(=O)NCc3ccco3)CC2)cc1,EC50,[1],> 112 µM (not active)
same,EC50,[2],> 112 µM (not active)
O=C(Nc1c(F)cc(F)cc1Br)c1cc(-c2ccccc2)on1,IC50,[6],4 µM (active)
O=C1NCCCC1C(=O)Nc1ccccc1C(F)(F)F (stereo unspecified),AC50,[3],39.8 µM (inconclusive)
Cc1nc2ccccc2nc(C)c1=NO,AC50,[5],inconclusive
same,AC50,[3],17.8 µM (inconclusive)
Cc1cccc(NC(=O)CCCNC(=O)c2ccc(Cl)cc2)n1,EC50,[1],16 µM (active)
same,EC50,[2],> 112 µM (not active)
CNC(=O)COC(=O)c1ccc(-c2nc3ccccc3s2)s1,EC50,[8],56.3 µM (active)
same,IC50,[6],5.82 µM (active)
same,EC50,[9],0.764 µM (active)
CCc1ccc2c(c1)cc(CN(C(S)=Nc1cccc(C)c1)C1CC1)c1nnnn12,AC50,[3],12.6 µM (inconclusive)
same,AC50,[7],2.82 µM (inconclusive)
OC(CSc1ccccc1Cl)CN1CCN(c2ccc(F)cc2)CC1 (stereo unspecified),EC50,[14],> 120 µM (not active)
same,EC50,[15],> 120 µM (not active)
same,EC50,[16],> 120 µM (not active)
O=C(c1cnc2ccc3ccccc3c2c1)c1cc(F)ccc1O,AC50,[11],0.562 µM (active)
Cc1ccccc1NC(=O)c1cc(S(=O)(=O)N2CCOCC2)cn1C,EC50,[1],> 112 µM (not active)
same,EC50,[2],> 112 µM (not active)
COc1cccc(OCCCOc2ccccc2C(C)C)c1,AC50,[17],0.0178 µM (inconclusive)
same,AC50,[3],22.4 µM (inconclusive)
same,AC50,[7],25.1 µM (inconclusive)
c1ccc(CN2CC[C@@H](CNc3ncnc4ccccc34)C2)cc1,AC50,[3],6.31 µM (inconclusive)
CC(c1ccccc1)N1C(=O)/C(=C/c2ccncc2)SC1=S (stereo unspecified),AC50,[11],19 µM (active)
O=C(CCc1ccccc1)NCc1cccnc1,AC50,[3],31.6 µM (inconclusive)
same,AC50,[7],1 µM (inconclusive)
Cc1ccnc(N/C=C(/NC(=O)c2ccccc2)C(=O)N/N=C\c2ccc(F)cc2)n1,AC50,[18],26.8 µM (active)
same,AC50,[19],> 70 µM (inactive)
C[C@@H]1CCCCO[C@H](CN(C)Cc2ccc(C(F)(F)F)cc2)[C@H](C)CN([C@@H](C)CO)C(=O)c2cc(NC(=O)Nc3ccc(F)cc3)ccc2O1,AC50,[20],8.21 µM (active)
C[C@@H]1CN([C@@H](C)CO)C(=O)Cc2cc(NC(=O)c3ccncc3)ccc2O[C@@H]1CN(C)Cc1ccc(-c2ccccc2)cc1,AC50,[20],22.3 µM (active)
CC(C)c1ccc(/C=N/NC(=O)c2ccccn2)cc1,IC50,[6],6.08 µM (active)
same,AC50,[11],19.5 µM (active)
N[C@H](C(=O)O)[C@H](OCc1ccccc1)C(=O)O,AC50,[3],31.6 µM (inconclusive)
c1ccc2[nH]c(-c3cscn3)nc2c1 [THIABENDAZOLE],EC50,[8],23.7 µM (active)
same,AC50,[5]; read-out: AC50,7.94 µM (inconclusive)
same,AC50,[3],0.126 µM (active)
same,EC50,[9],18.7 µM (active)
same,AC50,[4],10 µM (inconclusive)
same,EC50,[10],14.3 µM (active)
